Article PMC9154192 (PLoS Biology, 2022)
Where “and” joins values, the source holds several entries; their conditions need not be identical. Equal entries are not always repeated. Where two headings read alike, the source gives them in different places.

Legend:
in vitro = format: cell-based; conditions: human
Procedure: A549 human pulmonary epithelial cells (KCLB 10185), human embryonic kidney (HEK) 293 cells (KCLB 21573), human THP-1 leukemia cells (KCLB 40202), human neuroblastoma SH-SY5Y cells (KCLB 22266), Murine Raw 264.7 macrophages (KCLB 40071), and L929 murine fibroblasts (KCLB 10001) were purchased from the KCLB (Seoul, Korea). Cytotoxicity testing was performed using the MTT assay and the WST-1 cell viability assay as previously described.

[1] = system: XDR M. tuberculosis (KMRC 00203–00197); format: cell-based, Mycobacterium tuberculosis; conditions: for log reduction (CFU): 7 days
[2] = Acute oral toxicity test in mice; format: in vivo, BALB/c mice; conditions: single oral, 5 mice; for Deaths of mice, Days after dosing 0: day 0; for Deaths of mice, Days after dosing 1: day 1; for Deaths of mice, Days after dosing 2: day 2; for Deaths of mice, Days after dosing 3: day 3; for Deaths of mice, Days after dosing 4: day 4; for Deaths of mice, Days after dosing 5: day 5; for Deaths of mice, Days after dosing 6: day 6; for Deaths of mice, Days after dosing 7: day 7; for Deaths of mice, Days after dosing 8: day 8; for Deaths of mice, Days after dosing 9: day 9; for Deaths of mice, Days after dosing 10: day 10; for Deaths of mice, Days after dosing 11: day 11; for Deaths of mice, Days after dosing 12: day 12; for Deaths of mice, Days after dosing 13: day 13; for Deaths of mice, Days after dosing 14: day 14
Procedure: This experiment was conducted in a toxicity test at Soonchunhyang University's Animal Biological Safety Level 2 (ABSL-2) facility. The study protocol was reviewed and approved by Soonchunhyang University Animal Ethics Committee. Six-week-old female BALB/c were purchased from Koatech (Pyeongtaek, Korea) and five mice per group were tested. Drugs were orally administered once using a zonde and observed for two weeks. Corn oil (Sigma, USA) was used as the vehicle.

M. tuberculosis H37Rv [3] = test: Luminescence-based microbial cell viability assay; set-up: species or system Mycobacterium tuberculosis; conditions: for RLU/50ul (replicates1-3), single values / RLU/ml (×100) / RLU/50ul (average): Fig 2C
XDR M. tuberculosis [4] = format: cell-based, Mycobacterium tuberculosis
[5] = system: GFP-expressing M. tuberculosis; format: cell-based, Mycobacterium tuberculosis; conditions: 1 μg/ml
[6] = format: in vivo, Crl:CD SD rats; conditions: single oral dose up to 2,000 mg/kg, SD rats, 2 weeks
Procedure: Toxicity studies were conducted at Biotoxtech (Korea) under review and approval from IACUC (170842, 180144, 170889) of Biotoxtech. All animals used in the toxicity test were purchased from OrientBio (Korea).
For acute toxicity study with a single oral administration, 6-week-old Crl:CD SD rats were used. For PP1S, a total of 8 groups (n = 4 rats/group) were used (0, 500, 1,000, and 2,000 mg/kg for females and males, respectively). For PP2S, a total of 4 groups (n = 5 rats/group) were used (0 and 2,000 mg/kg for females and males, respectively). […] Corn oil (Sigma, USA) was used as the vehicle. Control animals were treated only with the same volume of the vehicle.

XDR M. tuberculosis [7] = format: cell-based, Mycobacterium tuberculosis; remark: listed apart in the source
M. tuberculosis H37Rv [8] = format: cell-based, Mycobacterium tuberculosis; conditions: for CFU/ml (average) / CFU/ml, single values / Intracellular M. tuberculosis, % (Drug Free = 100.0): Fig 3B, H37Rv
XDR M. tuberculosis [9] = test: Luminescence-based microbial cell viability assay; set-up: species or system Mycobacterium tuberculosis

Compound: CCCCOc1ccc2cc(CN3C(=O)CC[C@H]3C(=O)OC)c3cc(OC)c(OC)cc3c2c1 [PP2S, Methyl (S)-1-((3-butoxy-6,7-dimethoxyphenanthren-9-yl)methyl)-5-oxopyrrolidine-2-carboxylate]
- CC50 (in vitro; A549): > 500 mg/L
- CC50 (in vitro; HEK-293): > 500 mg/L
- CC50 (in vitro; SH-SY5Y): > 500 mg/L
- CC50 (in vitro; THP-1): > 500 mg/L
- CFU (log) [1]: 3.65 and 3.73
- CFU (replicates1-3), single values [1]: 5500 CFU and 1100 CFU and 2900 CFU and 2700 CFU and 6500 CFU and 5100 CFU and 5400 CFU and 6100 CFU and 5320 CFU and 9100 CFU and 3200 CFU (2×) and 3600 CFU and 3300 CFU and 3400 CFU and 2100 CFU and 12800 CFU and 8170 CFU
- log reduction (CFU) ([1]; at 0.8 μg/ml): 1.8
- log reduction (CFU) ([1]; at 1.6 μg/ml): 1.9
- Deaths of mice, Days after dosing 0 ([2]; Dose 500 mg/kg): 0
- Deaths of mice, Days after dosing 1 ([2]; Dose 500 mg/kg): 0
- Deaths of mice, Days after dosing 2 ([2]; Dose 500 mg/kg): 0
- Deaths of mice, Days after dosing 3 ([2]; Dose 500 mg/kg): 0
- Deaths of mice, Days after dosing 4 ([2]; Dose 500 mg/kg): 0
- Deaths of mice, Days after dosing 5 ([2]; Dose 500 mg/kg): 0
- Deaths of mice, Days after dosing 6 ([2]; Dose 500 mg/kg): 0
- Deaths of mice, Days after dosing 7 ([2]; Dose 500 mg/kg): 0
- Deaths of mice, Days after dosing 8 ([2]; Dose 500 mg/kg): 0
- Deaths of mice, Days after dosing 9 ([2]; Dose 500 mg/kg): 0
- Deaths of mice, Days after dosing 10 ([2]; Dose 500 mg/kg): 0
- Deaths of mice, Days after dosing 11 ([2]; Dose 500 mg/kg): 0
- Deaths of mice, Days after dosing 12 ([2]; Dose 500 mg/kg): 0
- Deaths of mice, Days after dosing 13 ([2]; Dose 500 mg/kg): 0
- Deaths of mice, Days after dosing 14 ([2]; Dose 500 mg/kg): 0
- Deaths of mice, Days after dosing 0 ([2]; Dose 1000 mg/kg): 0
- Deaths of mice, Days after dosing 1 ([2]; Dose 1000 mg/kg): 0
- Deaths of mice, Days after dosing 2 ([2]; Dose 1000 mg/kg): 0
- Deaths of mice, Days after dosing 3 ([2]; Dose 1000 mg/kg): 0
- Deaths of mice, Days after dosing 4 ([2]; Dose 1000 mg/kg): 0
- Deaths of mice, Days after dosing 5 ([2]; Dose 1000 mg/kg): 0
- Deaths of mice, Days after dosing 6 ([2]; Dose 1000 mg/kg): 0
- Deaths of mice, Days after dosing 7 ([2]; Dose 1000 mg/kg): 0
- Deaths of mice, Days after dosing 8 ([2]; Dose 1000 mg/kg): 0
- Deaths of mice, Days after dosing 9 ([2]; Dose 1000 mg/kg): 0
- Deaths of mice, Days after dosing 10 ([2]; Dose 1000 mg/kg): 0
- Deaths of mice, Days after dosing 11 ([2]; Dose 1000 mg/kg): 0
- Deaths of mice, Days after dosing 12 ([2]; Dose 1000 mg/kg): 0
- Deaths of mice, Days after dosing 13 ([2]; Dose 1000 mg/kg): 0
- Deaths of mice, Days after dosing 14 ([2]; Dose 1000 mg/kg): 0
- Deaths of mice, Days after dosing 0 ([2]; Dose 2000 mg/kg): 0
- Deaths of mice, Days after dosing 1 ([2]; Dose 2000 mg/kg): 0
- Deaths of mice, Days after dosing 2 ([2]; Dose 2000 mg/kg): 0
- Deaths of mice, Days after dosing 3 ([2]; Dose 2000 mg/kg): 0
- Deaths of mice, Days after dosing 4 ([2]; Dose 2000 mg/kg): 0
- Deaths of mice, Days after dosing 5 ([2]; Dose 2000 mg/kg): 0
- Deaths of mice, Days after dosing 6 ([2]; Dose 2000 mg/kg): 0
- Deaths of mice, Days after dosing 7 ([2]; Dose 2000 mg/kg): 0
- Deaths of mice, Days after dosing 8 ([2]; Dose 2000 mg/kg): 0
- Deaths of mice, Days after dosing 9 ([2]; Dose 2000 mg/kg): 0
- Deaths of mice, Days after dosing 10 ([2]; Dose 2000 mg/kg): 0
- Deaths of mice, Days after dosing 11 ([2]; Dose 2000 mg/kg): 0
- Deaths of mice, Days after dosing 12 ([2]; Dose 2000 mg/kg): 0
- Deaths of mice, Days after dosing 13 ([2]; Dose 2000 mg/kg): 0
- Deaths of mice, Days after dosing 14 ([2]; Dose 2000 mg/kg): 0
- RLU/50ul (replicates1-3), single values (M. tuberculosis H37Rv [3]; drug conc. 0.39): 1160 RLU/50ul and 1020 RLU/50ul and 2640 RLU/50ul and 2720 RLU/50ul and 2990 RLU/50ul and 1770 RLU/50ul and 1810 RLU/50ul and 1690 RLU/50ul and 1170 RLU/50ul
- RLU/ml (×100) (M. tuberculosis H37Rv [3]; drug conc. 0.39): 377.1 RLU/ml (×100)
- RLU/50ul (average) (M. tuberculosis H37Rv [3]; drug conc. 0.39, average of each replicate set): 2783 RLU/50ul and 1757 RLU/50ul and 1117 RLU/50ul
- RLU/50ul (replicates1-3), single values (M. tuberculosis H37Rv [3]; drug conc. 0.78): 410 RLU/50ul and 270 RLU/50ul and 850 RLU/50ul (2×) and 870 RLU/50ul and 620 RLU/50ul and 650 RLU/50ul and 580 RLU/50ul and 390 RLU/50ul
- RLU/ml (×100) (M. tuberculosis H37Rv [3]; drug conc. 0.78): 122.0 RLU/ml (×100)
- RLU/50ul (average) (M. tuberculosis H37Rv [3]; drug conc. 0.78, average of each replicate set): 857 RLU/50ul and 617 RLU/50ul and 357 RLU/50ul
- RLU/50ul (replicates1-3), single values (M. tuberculosis H37Rv [3]; drug conc. 1.56): 120 RLU/50ul and 160 RLU/50ul and 360 RLU/50ul and 370 RLU/50ul and 420 RLU/50ul and 110 RLU/50ul and 130 RLU/50ul (2×) and 170 RLU/50ul
- RLU/ml (×100) (M. tuberculosis H37Rv [3]; drug conc. 1.56): 43.8 RLU/ml (×100)
- RLU/50ul (average) (M. tuberculosis H37Rv [3]; drug conc. 1.56, average of each replicate set): 383 RLU/50ul and 137 RLU/50ul (2×)
- concentration with significant antitubercular effect (M. tuberculosis H37Rv [3]; luminescence-based assay): 1.56 µg/mL and 0.78 µg/mL
- growth of M. tuberculosis in macrophages (CFU) (XDR M. tuberculosis [4]): significantly inhibited the growth
- green signal of GFP-expressing M. tuberculosis in infected cells [5]: decrease in green signal
- change in body weight compared to control group [6]: no significant change
- clinical symptoms and death [6]: not observed
- RFU/200 μl (replicates1-3), single values (XDR M. tuberculosis [7]): 9970 RFU/200 μl and 10020 RFU/200 μl and 9360 RFU/200 μl and 9560 RFU/200 μl and 10400 RFU/200 μl and 10740 RFU/200 μl and 10810 RFU/200 μl and 10890 RFU/200 μl and 9990 RFU/200 μl and 20170 RFU/200 μl and 19980 RFU/200 μl and 20200 RFU/200 μl and 19820 RFU/200 μl and 20260 RFU/200 μl and 22530 RFU/200 μl and 22620 RFU/200 μl and 22580 RFU/200 μl and 20070 RFU/200 μl and 37150 RFU/200 μl and 37370 RFU/200 μl and 42810 RFU/200 μl and 39680 RFU/200 μl and 39960 RFU/200 μl and 41160 RFU/200 μl and 41210 RFU/200 μl and 41220 RFU/200 μl and 37280 RFU/200 μl
- concentration with significant antitubercular effect (XDR M. tuberculosis [7]): 0.39 µg/mL
- CFU/ml (average) (M. tuberculosis H37Rv [8]; drug conc. 1.6): 26807 CFU/ml
- CFU/ml, single values (M. tuberculosis H37Rv [8]; drug conc. 1.6): 23800 CFU/ml and 25500 CFU/ml and 31120 CFU/ml
- Intracellular M. tuberculosis, % (Drug Free = 100.0) (M. tuberculosis H37Rv [8]; drug conc. 1.6): 79.7%
- CFU/ml (average) (M. tuberculosis H37Rv [8]; drug conc. 3.1): 22130 CFU/ml
- CFU/ml, single values (M. tuberculosis H37Rv [8]; drug conc. 3.1): 17950 CFU/ml and 21400 CFU/ml and 27040 CFU/ml
- Intracellular M. tuberculosis, % (Drug Free = 100.0) (M. tuberculosis H37Rv [8]; drug conc. 3.1): 65.8%
- CFU/ml (average) (M. tuberculosis H37Rv [8]; drug conc. 6.3): 12950 CFU/ml
- Intracellular M. tuberculosis, % (Drug Free = 100.0) (M. tuberculosis H37Rv [8]; drug conc. 6.3): 38.5%
- CFU/ml (average) (M. tuberculosis H37Rv [8]; drug conc. 12.5): 7367 CFU/ml
- Intracellular M. tuberculosis, % (Drug Free = 100.0) (M. tuberculosis H37Rv [8]; drug conc. 12.5): 21.9%
- CFU/ml (average) (M. tuberculosis H37Rv [8]; drug conc. 25): 640 CFU/ml
- Intracellular M. tuberculosis, % (Drug Free = 100.0) (M. tuberculosis H37Rv [8]; drug conc. 25): 1.9%
- growth of M. tuberculosis in macrophages (CFU) (M. tuberculosis H37Rv [8]; H37Rv in Raw 264.7 cells, 3 days, concentration-dependent): significantly inhibited the growth
- RLU/50ul (replicates1-3), single values (XDR M. tuberculosis [9]): 50 RLU/50ul and 140 RLU/50ul and 80 RLU/50ul and 90 RLU/50ul (2×) and 120 RLU/50ul and 70 RLU/50ul and 130 RLU/50ul and 40 RLU/50ul and 260 RLU/50ul and 290 RLU/50ul and 430 RLU/50ul and 420 RLU/50ul and 460 RLU/50ul and 330 RLU/50ul and 390 RLU/50ul and 410 RLU/50ul and 220 RLU/50ul and 640 RLU/50ul and 720 RLU/50ul and 540 RLU/50ul and 550 RLU/50ul and 580 RLU/50ul and 450 RLU/50ul (2×) and 590 RLU/50ul and 630 RLU/50ul
- concentration with significant antitubercular effect (XDR M. tuberculosis [9]): 0.39 µg/mL
